Measured values from patent US8143217B2, “Use of DPP-IV inhibitor to reduce hypoglycemic events” (Novartis AG, priority 2005, dated 2012).

System: patients with type 2 diabetes treated with insulin
Assay: Clinical study: 24 weeks LAF237 50 mg bid vs placebo as add-on to insulin, hypoglycemic episodes
Format: in vivo, human
Details: for Number of severe hypoglycemic episodes (Panel C): severe = requiring assistance of another party; for Number of severe hypoglycemic events compared with placebo group: P=0.032, chi-square test of two Poisson rates
Description: A multicenter, double-blind, randomized, parallel-group study to compare the effect of 24 weeks treatment with LAF237 50 mg bid to placebo as add-on therapy in patients with type 2 diabetes treated with insulin.
In addition to treatment with insulin, patients are assigned to double-blind treatment of LAF237 50 mg bid or placebo in a ratio of 1:1.
This is a multicenter, randomized, double-blind, placebo-controlled study. Patients with type 2 diabetes (HbA1c 7.5-11%) who have been treated for at least 3 months with insulin is eligible for participation in the trial. Eligible patients are randomized equally to LAF237 50 mg bid or placebo in addition to continuing their insulin therapy. The insulin dose can be adjusted downward as clinically indicated but upward adjustments should not exceed 25% of the baseline insulin dose.
Each patient attends one screening visit (Week-4) where the inclusion/exclusion criteria is assessed. Eligible patients are then be randomized at Visit 2 (Baseline, Day 1) and complete 5 further visits over a period of 24 weeks of treatment with LAF237 or placebo added to insulin.
Patients were instructed to perform self-monitored blood glucose measurements (SMBG) any time hypoglycemia was suspected and prior to breakfast at least 3 times per week. […] Severe hypoglycemia was defined as any episode requiring the assistance of another party (with low plasma glucose value<3.1 mmol/L unless the severity of the event precluded glucose determination).

[1] = 24-week treatment, vildagliptin 50 mg bid added to insulin (n = 144)

N#C[C@@H]1CCCN1C(=O)CNC12CC3CC(CC(O)(C3)C1)C2 [vildagliptin, (S)-1-[(3-hydroxy-1-adamantyl)amino]acetyl-2-cyano-pyrrolidine]
Total number of hypoglycemic episodes reported (Panel B) [1]: 113 episodes | Number of patients reporting any hypoglycemic episode (Panel A) (24-week treatment, vildagliptin 50 mg bid added to insulin (n = 144), hypoglycemia = symptoms confirmed by SMBG<3.1 mmol/L): 33 patients | Number of severe hypoglycemic episodes (Panel C) [1]: none | Number of severe hypoglycemic episodes (Panel C) (24-week treatment, vildagliptin 50 mg bid added to insulin (n = 144), listed as LAF237): did not show any severe hypoglycaemic episodes | Number of severe hypoglycemic episodes (Panel C) (24-week treatment, vildagliptin 50 mg bid added to insulin (n = 144), listed as Vildagliptin + Insulin): 0 episodes | Effect against insulin-induced hypoglycemia (added to insulin in type 2 diabetes patients): protective effect | Number of hypoglycemic events compared with placebo group (vildagliptin 50 mg bid vs placebo, both added to insulin, 24 weeks, P<0.001, chi-square test of two Poisson rates): statistically significantly lower | Number of severe hypoglycemic events compared with placebo group (vildagliptin 50 mg bid vs placebo, both added to insulin, 24 weeks): statistically significantly lower | Number of severe hypoglycemic events compared with placebo group (vildagliptin 50 mg bid vs placebo, both added to insulin, 24 weeks, listed as LAF237): fewer severe hypoglycaemic episodes
